The subject of data set [1] is S. mutans (ATCC 700610, UA159). Put plainly: MIC and MBC by serial microdilution assays. Format: cell-based, Streptococcus mutans. Particulars: for MBC / MIC: 48 h, triplicate; for antibacterial potency (MIC and MBC) compared with another agent: comparison in words. On the procedure: MIC and MBC were measured using S. mutans (ATCC 700610, UA159, American Type Culture, Manassas, Va.). S. mutans is a cariogenic, aerotolerant anaerobic bacterium and the primary causative agent of dental caries (Loesche 1986). MIC and MBC were determined via serial microdilution assays (Imazato S et al. 2006; Huang L et al. 2011). Unpolymerized DMAHM or DMADM monomer was dissolved in brain heart infusion (BHI) broth (BD, Franklin Lakes, N.J.) to give a final concentration of 200 mg/mL. From these starting solutions, serial two fold dilutions were made into 1 mL volumes of BHI broth. 15 μL of stock S. mutans was added to 15 mL of BHI broth with 0.2% sucrose and incubated at 37° C. with 5% CO2. Overnight cultures of S. mutans were adjusted to 2×10^6 CFU/mL with BHI broth, and 50 μL of inocula was added to each well of a 96-well plate containing 50 μL of a series of antibacterial monomer dilution broths. BHI broth with 1×10^6 CFU/mL bacteria suspension without antibacterial agent served as negative control. Chlorhexidine diacetate (CHX) (Sigma, St. Louis, Mo.) served as positive control. The previously-synthesized QADM (Antonucci J M et al. 2012; Cheng L et al. 2012a) served as an antibacterial monomer control. After incubation at 37° C. in 5% CO2 for 48 h, the wells were read for turbidity, referenced by the negative and positive control wells. MIC was determined as the endpoint (the well with the lowest antibacterial agent concentration) where no turbidity could be detected with respect to the controls (Huang L et al. 2011). To determine MBC, an aliquot of 50 μL from each well without turbidity was inoculated on BHI agar plates and incubated at 37° C. in 5% CO2 for 48 h. MBC was determined as the lowest concentration of antibacterial agent that produced no colonies on the plate. The tests were performed in triplicate (Huang L et al. 2011).

For data set [2], the system named is Human gingival fibroblasts (HGF). Put plainly: Cytotoxicity of monomers via MTT assay. The class given is cell-based. Conditions: for cytotoxicity / cell viability compared with BisGMA: human gingival fibroblasts, FIG. 1. The protocol:
Human gingival fibroblasts (HGF, ScienCell) were cultured in a fibroblast medium (FM). […] Then, HGF were seeded in 96-well plates at 5,000 cells per well. […] After 4 h, the unreacted dye was removed and 150 μL, of dimethyl sulfoxide was added. Absorbance was measured via the microplate reader at 492 nm. […] Cells were also live/dead stained (Molecular Probes) and examined with fluorescence microscopy (TE2000-S, Nikon) as shown in FIG. 1B.

The subject of data set [3] is dental plaque microcosm biofilms. As to the kind of experiment: Live/dead assay of biofilms (CLSM). The class given is cell-based, human saliva inoculum. Particulars: 48-h biofilms on composite disks, FIG. 5. The protocol: The dental plaque microcosm biofilm model used human saliva as inoculum. Saliva was collected from a healthy adult donor following a previous study (Cheng L et al. 2012b). The donor had natural dentition without active caries or periopathology, and without the use of antibiotics within the last 3 months. […] Stimulated saliva was collected during parafilm chewing and kept on ice. The saliva was diluted in sterile glycerol to a concentration of 70% saliva and 30% glycerol (Cheng L et al. 2012b), and stored at −80° C. The saliva-glycerol stock was added, with 1:50 final dilution, into the growth medium as inoculum. The growth medium contained mucin (type II, porcine, gastric) at a concentration of 2.5 g/L; bacteriological peptone, 2.0 g/L; tryptone, 2.0 g/L; yeast extract, 1.0 g/L; NaCl, 0.35 g/L, KCl, 0.2 g/L; CaCl2, 0.2 g/L; cysteine hydrochloride, 0.1 g/L; haemin, 0.001 g/L; vitamin K1, 0.0002 g/L, at pH 7 (McBain A J 2009). Composite disks were sterilized in ethylene oxide (Anprolene AN 74i, Andersen, Haw River, N.C.). 1.5 mL of inoculum was added to each well of 24-well plates with a composite disk, and incubated in 5% CO2 at 37° C. for 8 h. […] Live bacteria were stained with Syto 9 to produce a green fluorescence, and bacteria with compromised membranes were stained with propidium iodide to produce a red fluorescence. […]

[4] abbreviates: unpolymerized monomer in BHI broth.

This is an account of results in patent US20150299345A1, “ANTIBACTERIAL MONOMERS, ANTIBACTERIAL RESINS AND DENTAL COMPOSITES COMPRISING THE ANTIBACTERIAL RESINS” (UNIVERSITY OF MARYLAND, BALTIMORE, priority 2012, published 2015).

As a reminder, the MBC is the smallest concentration meeting the test's criterion for killing. Broadly, the MIC is the least concentration at which growth counts as inhibited.

Like-named read-outs stand apart in the source and are kept apart here.

Consider `CC(=O)O.CC(=O)O.NC(=N\CCCCCC/N=C(N)/N=C(\N)Nc1ccc(Cl)cc1)/N=C(\N)Nc1ccc(Cl)cc1` [CHX, Chlorhexidine diacetate, reference compound], for which, in data set [1] (setting [4]), the MBC stood at 3.91 µg/mL and the MIC was 1.95 µg/mL.

Take `C=C(C)C(=O)OCC[N+](C)(C)CCCCCCCCCCCC.[Br-]` [DMADDM, dimethylamino dodecyl methacrylate]: the “antibacterial potency (MIC and MBC) compared with another agent” value in data set [1] is reported as “more than two orders of magnitude lower than those of MDAHM”. Moreover, in data set [1] (setting [4]), the MBC came to 12.21 µg/mL and the MIC came out at 6.10 µg/mL. Moreover, the fibroblast viability entry in data set [2] (at each monomer concentration (0.5-100 μg/mL), 2 d, n=6, FIG. 1) is listed as “highest fibroblast viability”. Besides, the “cytotoxicity / cell viability compared with BisGMA” value in data set [2] is “less cytotoxic”. In data set [3], the “antibacterial activity by live/dead staining of biofilms” value is recorded as “responsible for the antibacterial activity”.

For the molecule `C=C(C)C(=O)OCC[N+](C)(C)CCOC(=O)C(=C)C.[Br-]` [QADM, bis(2-methacryloyloxy-ethyl) dimethyl-ammonium bromide, reference compound], in data set [1] (Streptococcus mutans, ATCC700610, unpolymerized monomer in BHI broth, read-out: MBC), the MBC came to 25000 µg/mL. For the same molecule, the MIC in data set [1] (Streptococcus mutans, ATCC700610, unpolymerized monomer in BHI broth, read-out: MIC) came out at 12500 µg/mL.

For `C=C(C)C(=O)OCCCCCCCCCCCC[n+]1ccccc1.[Br-]` [MDPB, reference compound], in data set [2], the “cytotoxicity / cell viability compared with BisGMA” value is reported as “less cytotoxic”.

`C=C(C)C(=O)OCC[N+](C)(C)CCCCCC.[Br-]` [DMAHM]: in data set [1], the “antibacterial potency (MIC and MBC) compared with another agent” value is on record as “more potent than the previously-synthesized QADM”. For the same molecule, in data set [1] (setting [4]), the MBC came to 3130 µg/mL and the MIC came out at 1560 µg/mL.

Regarding `C=C(C)C(=O)OCC[N+](C)(C)CCCCCCCCCCCCCCCC.[Br-]` [DMAHDM, dimethylamino hexadecyl methacrylate], the “antibacterial potency (MIC and MBC) compared with another agent” value in data set [1] was “an order of magnitude more potent than those for chain length 12”. In data set [1] (setting [4]), this molecule showed an MBC of 0.61 µg/mL and an MIC of 0.305 µg/mL.
